Assay results as given in patent publication US20200078471A1, “RENAL CLEARABLE DRUG DELIVERING NANOPARTICLES AND METHODS OF USE THEREFOR” (priority 2018, published 2020).
Entries after “also recorded” stand apart in the source; their conditions may differ.

Key:
[1] = Renal clearance (urine DOX by HPLC, gold by ICP-MS); format: in vivo, female CD-1 mice; conditions: 24 hr p.i., intravenous
Text: (§1) Clearance, physiological stability, and elimination. […] The DOX concentrations were quantified based on fluorescence analysis.

[2] = DOX and AuNP biodistribution in organs and tissues; format: in vivo, CD-1 mice
Text: as §1

[3] = Acute toxicity, successive treatment (body weight, blood chemistry, H&E)
Method: (§2) Toxicity studies. […] For blood chemistry study, the blood was collected through cardiac puncture 15 days p.i. and kept on ice for 30 min for coagulation. […] The organs and tissues were also collected, fixed in formalin (10%) and embedded in paraffin before H&E staining and pathological evaluation. […] The mice were sacrificed on 10 days p.i. and the blood were extracted via cardiac puncture.

[4] = Maximal tolerated dose, single dose; conditions: single i.v. dose, 10 days
Method: as §2

[5] = tested on: MCF-7 human breast cancer xenograft; experiment: Tumor targeting efficiency; format: in vivo, nude mice; conditions: 12 hr p.i., DOX 5 mg/kg i.v.
Method: Tumor targeting, penetration and antitumor efficacy studies. […] The tumors were collected and homogenized and DOX concentrations were measured using the same approaches described in the biodistribution studies. The ex vivo tumor fluorescence imaging was acquired using a Carestream Molecular imaging system In-Vivo FX PRO with an excitation filter of 470±10 nm and an emission filter of 600±20 nm. […] The mice were sacrificed 12 hr and 3 days p.i. respectively. Tumor tissues were fixed, embedded in paraffin and sliced before haematoxylin and eosin (H&E), and silver staining. To enable visualization of AuNPs in the tumor issues, dewaxed tumor slides were incubated with silver nitrate (0.1 M) and hydroquinone (2 mM) for 15 min at room temperature, followed by washing with pure water and haemotoxylin and eosin staining (Du et al., 2017). […] The length (L) and width (W) of the tumors were measured with a digital calliper and the volume (V) was calculated by the equation V=½ LW^2. The body weights were also monitored during the treatment. […] For survival study, the tumor bearing mice were treated same with therapeutic study, and tumor sizes were monitored. […] To establish the metastatic lung cancer model, female Balb/c mice were implanted with 4T1 mammary cancer cells subcutaneously and the cancer cells would be readily developed as lung metastatic nodules after a week.

4T1 lung metastasis = experiment: Metastatic lung cancer model, nodule count and size; format: in vivo, female Balb/c mice; conditions: 5 mg/kg DOX equivalent ×5, day 23
[6] = Pharmacokinetic study, DOX in blood
Method: Clearance, physiological stability, and elimination. […] Since DOX is highly fluorescent, the fluorescence signals were collected at 610 nm with excitation at 470 nm. […] Extraction was performed at −20° C. for overnight and supernatant was obtained after centrifugation at 15,000 g for 10 min. The DOX concentrations were quantified based on fluorescence analysis. […] For pharmacokinetic study, the DOX concentrations in blood were analysed using HPLC with the same approach described above.

[7] = equivalent DOX 5 mg/kg ×5, within 10 days

SMILES: COc1cccc2c1C(=O)c1c(O)c3c(c(O)c1C2=O)C[C@@](O)(C(=O)CO)C[C@@H]3O[C@H]1C[C@H](N)[C@H](O)[C@H](C)O1 [free DOX, doxorubicin]
- DOX-based renal clearance (renally cleared DOX) [1]: 6.1±1.1 % ID
- DOX distribution in the kidneys ([2]; 1 hr p.i.): 11.4 % ID/g
- DOX accumulation in the liver ([2]; 24 h p.i.): even lower accumulation in the liver
- decrease of muscle DOX from 1 to 24 h ([2]; mouse, in vivo): 19.7%
- hepatocyte anisocaryosis and anisocytosis (H&E liver) ([3]; 15 days p.i.): increase in hepatocyte anisocaryosis and anisocytosis; also recorded: evident
- hepatocyte nuclei size distribution width ([3]; 15 days p.i.): significant higher distribution width
- pathological signs in heart, kidney, spleen and muscle ([3]; 15 days p.i.): no observable pathological signs
- blood chemistry, liver function (ALT, AST, ALKP, albumin) ([3]; 15 days p.i., 5 mg/kg ×5): increased alanine aminotransferase (ALT) and aspartate aminotransferase (AST) levels and decreased alkaline phosphatase (ALKP) and albumin levels in serum
- blood chemistry, renal function (BUN, CREA) ([3]; 15 days p.i., 5 mg/kg ×5): increased blood urea nitrogen (BUN) and creatinine (CREA) levels in serum
- body weight loss [3, 7]: ~10%
- mortality [3, 7]: 25%
- maximal tolerance dose (MTD, in terms of DOX) [4]: 10 mg/kg body weight
- tumor targeting of DOX [5]: 0.79±0.22 % ID/g
- count of metastatic tumor nodules in the lungs (per mouse) (4T1 lung metastasis): 62.6±30.5
- size of metastatic lung tumor nodules (4T1 lung metastasis): 1.64±0.77 mm
- 24-h area under curve (AUC) ([6]; DOX in blood): 2.2 % ID·h/g
- distribution half-life t1/2a ([6]; plasma, CD-1 mice): 4.8 min
